The NIST ThermoML archive (doi:10.1021/acs.jced.6b00332)

Experiment: mn = molality of the nth substance listed, in mol/kg
Conditions: 100 kPa, Liquid; for speed of sound: Frequency=3 MHz, Sing-around technique in a fixed-path interferometer; for mass density: Vibrating tube method

CCCCC[N+](CCCCC)(CCCCC)CCCCC.[Br-] [tetrapentylammonium bromide] + O
m1 = 0.01
Conditions	mass density [kg/m3]	speed of sound [m/s]
293.15 K	998.34	1485.3
298.15 K	997	1499.1
303.15 K	995.7	1511.2
308.15 K	994.05	1521.6
313.15 K	991.93	1530.5
318.15 K	990.16	1537.9

CCCCCCCCCCCC[N+](C)(C)C.[Br-] [dodecyltrimethylammonium bromide] + O
Conditions	mass density [kg/m3]	speed of sound [m/s]
293.15 K, m1 = 0.003	998.31	1483.3
293.15 K, m1 = 0.006	998.37	1484.2
293.15 K, m1 = 0.009	998.43	1484.9
293.15 K, m1 = 0.012	998.49	1485.6
293.15 K, m1 = 0.015	998.54	1486.3
293.15 K, m1 = 0.018	998.6	1486.7
293.15 K, m1 = 0.021	998.65	1486.8
293.15 K, m1 = 0.024	998.7	1486.9
293.15 K, m1 = 0.027	998.75	1487
293.15 K, m1 = 0.03	998.81	1487
293.15 K, m1 = 0.033	998.87	1487.1
293.15 K, m1 = 0.036	998.92	1487.1
293.15 K, m1 = 0.039	998.95	1487.1
293.15 K, m1 = 0.042	999	1487.1
293.15 K, m1 = 0.045	999.05	1487
298.15 K, m1 = 0.003	997.2	1497.2
298.15 K, m1 = 0.006	997.26	1497.9
298.15 K, m1 = 0.009	997.32	1498.6
298.15 K, m1 = 0.012	997.37	1499.2
298.15 K, m1 = 0.015	997.43	1499.9
298.15 K, m1 = 0.018	997.49	1500.2
298.15 K, m1 = 0.021	997.53	1500.3
298.15 K, m1 = 0.024	997.58	1500.3
298.15 K, m1 = 0.027	997.63	1500.4
298.15 K, m1 = 0.03	997.67	1500.4
298.15 K, m1 = 0.033	997.71	1500.5
298.15 K, m1 = 0.036	997.75	1500.4
298.15 K, m1 = 0.039	997.79	1500.5
298.15 K, m1 = 0.042	997.82	1500.4
298.15 K, m1 = 0.045	997.85	1500.5
303.15 K, m1 = 0.003	995.71	1509.7
303.15 K, m1 = 0.006	995.76	1510.3
303.15 K, m1 = 0.009	995.82	1511
303.15 K, m1 = 0.012	995.87	1511.6
303.15 K, m1 = 0.015	995.92	1512
303.15 K, m1 = 0.018	995.97	1512.2
303.15 K, m1 = 0.021	996.02	1512.2
303.15 K, m1 = 0.024	996.07	1512.2
303.15 K, m1 = 0.027	996.11	1512.2
303.15 K, m1 = 0.03	996.16	1512.2
303.15 K, m1 = 0.033	996.21	1512.2
303.15 K, m1 = 0.036	996.24	1512.2
303.15 K, m1 = 0.039	996.29	1512.3
303.15 K, m1 = 0.042	996.32	1512.2
303.15 K, m1 = 0.045	996.36	1512.3
308.15 K, m1 = 0.003	994.26	1520.3
308.15 K, m1 = 0.006	994.31	1520.9
308.15 K, m1 = 0.009	994.36	1521.5
308.15 K, m1 = 0.012	994.41	1522
308.15 K, m1 = 0.015	994.46	1522.6
308.15 K, m1 = 0.018	994.51	1522.6
308.15 K, m1 = 0.021	994.55	1522.6
308.15 K, m1 = 0.024	994.59	1522.6
308.15 K, m1 = 0.027	994.63	1522.6
308.15 K, m1 = 0.03	994.67	1522.5
308.15 K, m1 = 0.033	994.72	1522.5
308.15 K, m1 = 0.036	994.77	1522.5
308.15 K, m1 = 0.039	994.79	1522.5
308.15 K, m1 = 0.042	994.82	1522.6
308.15 K, m1 = 0.045	994.84	1522.5
313.15 K, m1 = 0.003	992.29	1529.4
313.15 K, m1 = 0.006	992.33	1529.9
313.15 K, m1 = 0.009	992.38	1530.4
313.15 K, m1 = 0.012	992.42	1530.9
313.15 K, m1 = 0.015	992.47	1531.4
313.15 K, m1 = 0.018	992.51	1531.5
313.15 K, m1 = 0.021	992.55	1531.4
313.15 K, m1 = 0.024	992.59	1531.4
313.15 K, m1 = 0.027	992.63	1531.3
313.15 K, m1 = 0.03	992.67	1531.3
313.15 K, m1 = 0.033	992.71	1531.2
313.15 K, m1 = 0.036	992.77	1531.3
313.15 K, m1 = 0.039	992.81	1531.3
313.15 K, m1 = 0.042	992.87	1531.3
313.15 K, m1 = 0.045	992.9	1531.2
318.15 K, m1 = 0.003	990.28	1536.3
318.15 K, m1 = 0.006	990.33	1536.7
318.15 K, m1 = 0.009	990.37	1537.2
318.15 K, m1 = 0.012	990.39	1537.8
318.15 K, m1 = 0.015	990.42	1538.2
318.15 K, m1 = 0.018	990.45	1538.4
318.15 K, m1 = 0.021	990.48	1538.6
318.15 K, m1 = 0.024	990.52	1538.7
318.15 K, m1 = 0.027	990.55	1538.7
318.15 K, m1 = 0.03	990.57	1538.7
318.15 K, m1 = 0.033	990.61	1538.9
318.15 K, m1 = 0.036	990.64	1538.9
318.15 K, m1 = 0.039	990.67	1539
318.15 K, m1 = 0.042	990.7	1539.1
318.15 K, m1 = 0.045	990.72	1539.1

CCCC[N+](CCCC)(CCCC)CCCC.[Br-] [tetrabutylammonium bromide] + O
m1 = 0.01
Conditions	mass density [kg/m3]	speed of sound [m/s]
293.15 K	998.57	1485.3
298.15 K	997.35	1499.2
303.15 K	995.88	1511.4
308.15 K	994.29	1521.9
313.15 K	992.33	1531
318.15 K	990.43	1538.6
